Data reported in the supplement of paper PMC10307832.

Assays:
Test in all cases: relative viability (nuclei count vs DMSO), 5 days (fraction); higher = more cells survive
RU-SKI 43 + Pictilisib = compound: CC[C@@H](C)CNCC(=O)N1CCC2=C([C@@H]1COC3=CC=CC(=C3)C)C=CS2 [RU-SKI 43] + CS(=O)(=O)N1CCN(Cc2cc3nc(-c4cccc5[nH]ncc45)nc(N4CCOCC4)c3s2)CC1 [Pictilisib] (partner 1 µM)
Summary of the method: (§1)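 Lung cancer cell lines were pin-tool dosed in 1536-well plates on the day after seeding, with either a lone drug or a fixed anchor-drug dose plus five library-drug doses (not always all listed) in √10 steps. Nuclei were counted on 4× images after 5 days. Relative viability is the ratio of treated-well to vehicle-well nuclei counts, with each value a median of duplicate plates.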

MK-8033 + Trametinib = compound: Cn1cc(-c2cnc3ccc4ccc(CS(=O)(=O)NCc5ccccn5)cc4c(=O)c3c2)cn1 [MK-8033] + CC(=O)Nc1cccc(-n2c(=O)n(C3CC3)c(=O)c3c(Nc4ccc(I)cc4F)n(C)c(=O)c(C)c32)c1 [Trametinib] (partner 0.02 µM)
Summary of the method: as §1

MK-8033 + Palbociclib = compound: Cn1cc(-c2cnc3ccc4ccc(CS(=O)(=O)NCc5ccccn5)cc4c(=O)c3c2)cn1 [MK-8033] + CC(=O)c1c(C)c2cnc(Nc3ccc(N4CCNCC4)cn3)nc2n(C2CCCC2)c1=O [Palbociclib] (partner 0.5 µM)
Summary of the method: as §1

MK-8033 + AZD7762 = compound: Cn1cc(-c2cnc3ccc4ccc(CS(=O)(=O)NCc5ccccn5)cc4c(=O)c3c2)cn1 [MK-8033] + NC(=O)Nc1cc(-c2cccc(F)c2)sc1C(=O)N[C@H]1CCCNC1 [AZD7762] (partner 0.2 µM)
Summary of the method: as §1

Cell Line	relative viability (RU-SKI 43 + Pictilisib; first compound 0.1 µM)	relative viability (RU-SKI 43 + Pictilisib; first compound 0.3162 µM)	relative viability (RU-SKI 43 + Pictilisib; first compound 1 µM)	relative viability (RU-SKI 43 + Pictilisib; first compound 3.162 µM)	relative viability (RU-SKI 43 + Pictilisib; first compound 10 µM)	relative viability (MK-8033 + Trametinib; first compound 0.02 µM)	relative viability (MK-8033 + Trametinib; first compound 0.2 µM)	relative viability (MK-8033 + Trametinib; first compound 0.6325 µM)	relative viability (MK-8033 + Trametinib; first compound 2 µM)	relative viability (MK-8033 + Palbociclib; first compound 0.02 µM)	relative viability (MK-8033 + Palbociclib; first compound 0.06325 µM)	relative viability (MK-8033 + Palbociclib; first compound 0.2 µM)	relative viability (MK-8033 + Palbociclib; first compound 0.6325 µM)	relative viability (MK-8033 + Palbociclib; first compound 2 µM)	relative viability (MK-8033 + AZD7762; first compound 0.02 µM)	relative viability (MK-8033 + AZD7762; first compound 0.06325 µM)	relative viability (MK-8033 + AZD7762; first compound 0.2 µM)	relative viability (MK-8033 + AZD7762; first compound 0.6325 µM)	relative viability (MK-8033 + AZD7762; first compound 2 µM)	relative viability (MK-8033 + Trametinib; first compound 0.06325 µM)
H3255	0.435	0.412	0.512	0.494	0.455	0.598	0.562	0.656	0.532	0.307	0.361	0.309	0.307	0.336	0.932	0.724	0.793	0.788	0.899	
HARA	0.524	0.512	0.435	0.458	0.318	0.509	0.825	0.423	0.689	0.229	0.251	0.311	0.296	0.283	0.471	0.268	0.263	0.303	0.438	0.525
HCC-15	0.886	0.887	0.872	0.721	0.679	0.387	0.322	0.351	0.368	0.748	0.625	0.722	0.699	0.738	1.06	1.31	0.978	1.31	1.18	0.369
HCC-44	0.668	0.504	0.77	0.675	0.566	1.01	1.04	1.02	1.04	0.98	1.01	0.975	1.01	1.01	1.04	1.04	0.994	1.06	1.02	1.04
HCC-78	0.24	0.232	0.278	0.176	0.191	0.611	0.739	0.325	0.578	0.516	0.63	0.451	0.514	0.511	0.712	0.517	0.719	0.557	0.566	0.614
HCC-366	0.134	0.196	0.175	0.221	0.137	0.43	0.314	0.279	0.362	0.417	0.343	0.355	0.367	0.351	0.367	0.231	0.228	0.291	0.256	0.346
HCC-827	0.994	0.97	1.19	1.05	0.94	0.578	0.534	0.547	0.605	0.49		0.471	0.49	0.545	0.259		0.196	0.207	0.238	
HOP-62	0.767	0.69	0.834	0.769	0.611	0.315	0.344	0.371	0.35	0.469	0.41	0.425	0.496	0.446	0.67	0.722	0.464	0.471	0.578	0.381
